Series [1] has as its system Leishmania braziliensis stationary promastigotes. The series can be described thus: In vitro antileishmanial activity against promastigotes (MTT). As to conditions: Leishmania braziliensis; 48 h at 24 °C, MTT, mean ± standard deviation. It is filed as cell-based. The protocol:
The study was approved by the Committee for the Ethical Handling of Research Animals from the Federal University of Minas Gerais (protocol number 085/2017). Leishmania braziliensis (MHOM/BR/1975/M2904) promastigotes were grown at 24 °C in Schneider’s medium (Sigma-Aldrich, USA) supplemented with 20% heat-inactivated fetal bovine serum (FBS, Sigma-Aldrich, USA) and 20 mmol/L L-glutamine at pH 7.4 [65].
(§1) The in vitro antileishmanial activity was evaluated by incubating the promastigotes or axenic amastigotes (1 × 10^6 cells/well) with the 24 synthetic derivatives (Compounds 5–28; 0 to 600 µg/mL) in 96-well culture plates (Nunc, Nunclon, Roskilde, Denmark) for 48 h at 24 °C. Due to the difficulty in obtaining a high concentration of murine macrophages, the cytotoxicity experiment was evaluated by incubating such cells (5 × 10^5 per mL) with Compound 28 (0 to 600 µg/mL), which presented the best antileishmanial activity, for 48 h at 37 °C in a 5% CO2 environment. AmpB (0 to 10 µg/mL; Sigma-Aldrich, St. Louis, MO, USA) was used as a positive control in both experiments. The cell viability was assessed using the 3-(4.5-dimethylthiazol-2-yl)-2.5-diphenyl tetrazolium bromide (MTT, Sigma-Aldrich, St. Louis, MO, USA) method. The optical density (OD) values were read using a microplate spectrophotometer (Molecular Devices, Spectra Max Plus, San Jose, CA, USA) at 570 nm. Results were entered into Microsoft Excel (version 10.0) spreadsheets, and the 50% Leishmania and macrophage inhibitory concentrations (IC50 and CC50, respectively) were calculated by applying a sigmoidal regression of the dose–response curve. The SI was calculated by dividing the CC50 with the respective IC50 values.

Series [2] concerns Leishmania braziliensis axenic amastigotes. The series can be described thus: In vitro antileishmanial activity against axenic amastigotes (MTT). It is filed as cell-based. As to conditions: Leishmania braziliensis, 48 h, 48 h at 24 °C, MTT, mean ± standard deviation. The protocol: To obtain the axenic amastigotes, 1 × 10^9 stationary promastigotes were washed three times in sterile phosphate-buffered saline (PBS) and incubated in 5 mL FBS for 48 h at 37 °C. Parasites were washed with cold PBS, and their morphology was evaluated with an optical microscope after Giemsa staining as previously described.
as §1

Experimental findings from publication PMC10459042, “Synthesis of 1,2,3-Triazole-Containing Methoxylated Cinnamides and Their Antileishmanial Activity against the Leishmania braziliensis Species” (Pharmaceuticals, 2023) are described below.

For orientation: IC50 means the concentration at which inhibition is half-maximal. Lower therefore signals greater potency in that assay. What is called melting point is the temperature, or range, at which the solid turns liquid. Molecule `COc1ccc(/C=C/C(=O)NCc2cn(Cc3ccc(OC)cc3)nn2)cc1` [Compound 12, N-((1-(4-methoxybenzyl)-1H-1,2,3-triazol-4-yl)methyl) (4-methoxy) cinnamide] had a melting point of 169 to 170.2 °C. For the same molecule, the IC50 in series [1] was above 600 µg/mL. Moreover, in series [2], the IC50 is above 600 µg/mL.

On to `COc1ccc(/C=C/C(=O)NCc2cn(Cc3ccc(C(F)(F)F)cc3)nn2)cc1` [Compound 14, N-((1-(4-(trifluoromethyl)benzyl)-1H-1,2,3-triazol-4-yl)methyl) (4-methoxy) cinnamide], for which the melting point lay within 220.5 to 221.9 °C. In addition, the IC50 in series [1] is above 600 µg/mL. Besides, in series [2], the IC50 is above 600 µg/mL.

Molecule `COc1ccc(/C=C/C(=O)NCc2cn(Cc3ccc(Cl)cc3)nn2)cc1` [Compound 8, N-((1-(4-chlorobenzyl)-1H-1,2,3-triazol-4-yl)methyl) (4-methoxy) cinnamide] came in with a melting point of 185.7 to 186.5 °C. Also, in series [1], the IC50 is above 600 µg/mL. The same molecule came in with an IC50 in series [2] above 600 µg/mL.

`COc1ccc(/C=C/C(=O)NCc2cn(Cc3ccc(Cl)cc3)nn2)cc1OC` [Compound 19, N-((1-(4-chlorobenzyl)-1H-1,2,3-triazol-4-yl)methyl) (3,4-dimethoxy) cinnamide]: the melting point lay in the range of 189.6 to 190.8 °C. Also, in series [1], the IC50 was above 600 µg/mL. The same molecule returned an IC50 in series [2] above 600 µg/mL.

`COc1ccc(/C=C/C(=O)NCc2cn(Cc3ccc(C)cc3)nn2)cc1OC` [Compound 16, N-((1-(4-methylbenzyl)-1H-1,2,3-triazol-4-yl)methyl) (3,4-dimethoxy) cinnamide]: the melting point was in the range of 191.6 to 192.2 °C. In series [1], the IC50 was above 600 µg/mL. In series [2], this molecule came in with an IC50 above 600 µg/mL.

On to `COc1ccc(/C=C/C(=O)NCc2cn(Cc3ccc(I)cc3)nn2)cc1OC` [Compound 21, N-((1-(4-iodobenzyl)-1H-1,2,3-triazol-4-yl)methyl) (3,4-dimethoxy) cinnamide], for which the melting point was 194 to 194.9 °C. Also, in series [1], the IC50 was above 600 µg/mL. In addition, the IC50 in series [2] was above 600 µg/mL.

The molecule `COc1ccc(/C=C/C(=O)NCc2cn(Cc3ccc(OC(F)(F)F)cc3)nn2)cc1OC` [Compound 24, N-((1-(4-(trifluoromethoxy)benzyl)-1H-1,2,3-triazol-4-yl)methyl) (3,4-dimethoxy) cinnamide] gave a melting point of 177.4 to 178.6 °C. In series [1], this molecule returned a half-maximal inhibitory concentration (IC50) above 600 µg/mL. The IC50 in series [2] was above 600 µg/mL.

Take `COc1ccc(Cn2cc(CNC(=O)/C=C/c3ccc(OC)c(OC)c3)nn2)cc1` [Compound 23, N-((1-(4-methoxybenzyl)-1H-1,2,3-triazol-4-yl)methyl) (3,4-dimethoxy) cinnamide]: the melting point was 171.2 to 172 °C. The same molecule yielded an IC50 in series [1] above 600 µg/mL. Also, in series [2], the IC50 was above 600 µg/mL.

`COc1ccc(/C=C/C(=O)NCc2cn(Cc3ccc(C(C)C)cc3)nn2)cc1` [Compound 6, N-((1-(4-isopropylbenzyl)-1H-1,2,3-triazol-4-yl)methyl) (4-methoxy) cinnamide] had a melting point of 187.4 to 188.3 °C. Also, in series [1], the IC50 is above 600 µg/mL. The IC50 in series [2] is above 600 µg/mL.

For `COc1ccc(/C=C/C(=O)NCc2cn(Cc3ccc(C)cc3)nn2)cc1` [Compound 5, N-((1-(4-methylbenzyl)-1H-1,2,3-triazol-4-yl)methyl) (4-methoxy) Cinnamide], the melting point was 166 to 167.2 °C. In addition, the IC50 in series [1] was above 600 µg/mL. The IC50 in series [2] is above 600 µg/mL.

`COc1ccc(/C=C/C(=O)NCc2cn(Cc3ccc([N+](=O)[O-])cc3)nn2)cc1` [Compound 11, N-((1-(4-nitrobenzyl)-1H-1,2,3-triazol-4-yl)methyl) (4-methoxy) cinnamide] registered a melting point of 192.2 to 193.4 °C. The same molecule gave an IC50 in series [1] above 600 µg/mL. In series [2], this molecule had an IC50 above 600 µg/mL.

`COc1ccc(/C=C/C(=O)NCc2cn(Cc3ccc(F)cc3)nn2)cc1OC` [Compound 18, N-((1-(4-fluorobenzyl)-1H-1,2,3-triazol-4-yl)methyl) (3,4-dimethoxy) cinnamide] came in with a melting point of 174.8 to 175.5 °C. Moreover, the IC50 in series [1] is above 600 µg/mL. The half-inhibitory concentration (IC50) in series [2] was above 600 µg/mL.

The molecule `COc1ccc(/C=C/C(=O)NCc2cn(Cc3ccc(I)cc3)nn2)cc1` [Compound 10, N-((1-(4-iodobenzyl)-1H-1,2,3-triazol-4-yl)methyl) (4-methoxy) cinnamide] returned a melting point of 200.6 to 202 °C. Besides, in series [1], the IC50 is above 600 µg/mL. This molecule also showed an IC50 in series [2] above 600 µg/mL.

Molecule `CCN(CC)c1ccc2cc(-n3cc(CNC(=O)/C=C/c4ccc(OC)cc4)nn3)c(=O)oc2c1` [Compound 27, N-((1-(7-(diethylamino)-2-oxo-2H-chromen-3-yl)-1H-1,2,3-triazol-4-yl)methyl) (4-methoxy) cinnamide] returned a melting point of 191.3 to 192.7 °C. In series [1], this molecule yielded an IC50 above 600 µg/mL. In series [2], this molecule gave an IC50 above 600 µg/mL.

Molecule `COc1ccc(/C=C/C(=O)NCc2cn(Cc3ccc([N+](=O)[O-])cc3)nn2)cc1OC` [Compound 22, N-((1-(4-nitrobenzyl)-1H-1,2,3-triazol-4-yl)methyl) (3,4-dimethoxy) cinnamide] came in with a melting point of 217.6 to 218.9 °C. In addition, the IC50 in series [1] is above 600 µg/mL. This molecule yielded an IC50 in series [2] above 600 µg/mL.

`COc1ccc(/C=C/C(=O)NCc2cn(Cc3ccc(F)c(F)c3)nn2)cc1OC` [Compound 26, N-((1-(3,4-difluorobenzyl)-1H-1,2,3-triazol-4-yl)methyl) (3,4-dimethoxy) cinnamide]: the melting point lay in the range of 166 to 167.2 °C. Further, in series [1], the IC50 is above 600 µg/mL. This molecule showed a half-maximal inhibitory concentration (IC50) in series [2] above 600 µg/mL.

`COc1ccc(/C=C/C(=O)NCc2cn(Cc3ccc(F)c(F)c3)nn2)cc1` [Compound 15, N-((1-(3,4-difluorobenzyl)-1H-1,2,3-triazol-4-yl)methyl) (4-methoxy) cinnamide] yielded a melting point of 166.3 to 167.7 °C. This molecule also yielded an IC50 in series [1] above 600 µg/mL. Also, in series [2], the IC50 is above 600 µg/mL.

As to `COc1ccc(/C=C/C(=O)NCc2cn(Cc3ccc(OC(F)(F)F)cc3)nn2)cc1` [Compound 13, N-((1-(4-(trifluoromethoxy)benzyl)-1H-1,2,3-triazol-4-yl)methyl) (4-methoxy) cinnamide], the melting point lay within 191.4 to 193 °C. Also, in series [1], the IC50 was above 600 µg/mL. In series [2], the IC50 was above 600 µg/mL.

`COc1ccc(/C=C/C(=O)NCc2cn(Cc3ccc(C(F)(F)F)cc3)nn2)cc1OC` [Compound 25, N-((1-(4-(trifluoromethyl)benzyl)-1H-1,2,3-triazol-4-yl)methyl) (3,4-dimethoxy) cinnamide] showed a melting point of 196.4 to 197.6 °C. In series [1], this molecule had an IC50 above 600 µg/mL. Further, the IC50 in series [2] was above 600 µg/mL.

Turning to `COc1ccc(/C=C/C(=O)NCc2cn(Cc3ccc(Br)cc3)nn2)cc1OC` [Compound 20, N-((1-(4-bromobenzyl)-1H-1,2,3-triazol-4-yl)methyl) (3,4-dimethoxy) cinnamide], the melting point is 198.2 to 199.6 °C. Also, in series [1], the IC50 was above 600 µg/mL. The IC50 in series [2] was above 600 µg/mL.

`COc1ccc(/C=C/C(=O)NCc2cn(Cc3ccc(Br)cc3)nn2)cc1` [Compound 9, N-((1-(4-bromobenzyl)-1H-1,2,3-triazol-4-yl)methyl) (4-methoxy) cinnamide] returned a melting point of 193.1 to 194.7 °C. This molecule displayed an IC50 in series [1] above 600 µg/mL. Besides, the IC50 in series [2] is above 600 µg/mL.

The molecule `COc1ccc(/C=C/C(=O)NCc2cn(Cc3ccc(C(C)C)cc3)nn2)cc1OC` [Compound 17, N-((1-(4-isopropylbenzyl)-1H-1,2,3-triazol-4-yl)methyl) (3,4-dimethoxy) cinnamide] displayed a melting point of 175.5 to 176.4 °C. Further, the IC50 in series [1] was above 600 µg/mL. The IC50 in series [2] was above 600 µg/mL.

As for `COc1ccc(/C=C/C(=O)NCc2cn(Cc3ccc(F)cc3)nn2)cc1` [Compound 7, N-((1-(4-fluorobenzyl)-1H-1,2,3-triazol-4-yl)methyl) (4-methoxy) cinnamide], the melting point is 178.6 to 180 °C. Also, the IC50 in series [1] was above 600 µg/mL. Moreover, the IC50 in series [2] was above 600 µg/mL.
